Target: SidJ (Legionella pneumophila, UniProt Q5ZTK6)
Assay: biochemical

SidJ, sequence (Q5ZTK6 whole entry, looked up): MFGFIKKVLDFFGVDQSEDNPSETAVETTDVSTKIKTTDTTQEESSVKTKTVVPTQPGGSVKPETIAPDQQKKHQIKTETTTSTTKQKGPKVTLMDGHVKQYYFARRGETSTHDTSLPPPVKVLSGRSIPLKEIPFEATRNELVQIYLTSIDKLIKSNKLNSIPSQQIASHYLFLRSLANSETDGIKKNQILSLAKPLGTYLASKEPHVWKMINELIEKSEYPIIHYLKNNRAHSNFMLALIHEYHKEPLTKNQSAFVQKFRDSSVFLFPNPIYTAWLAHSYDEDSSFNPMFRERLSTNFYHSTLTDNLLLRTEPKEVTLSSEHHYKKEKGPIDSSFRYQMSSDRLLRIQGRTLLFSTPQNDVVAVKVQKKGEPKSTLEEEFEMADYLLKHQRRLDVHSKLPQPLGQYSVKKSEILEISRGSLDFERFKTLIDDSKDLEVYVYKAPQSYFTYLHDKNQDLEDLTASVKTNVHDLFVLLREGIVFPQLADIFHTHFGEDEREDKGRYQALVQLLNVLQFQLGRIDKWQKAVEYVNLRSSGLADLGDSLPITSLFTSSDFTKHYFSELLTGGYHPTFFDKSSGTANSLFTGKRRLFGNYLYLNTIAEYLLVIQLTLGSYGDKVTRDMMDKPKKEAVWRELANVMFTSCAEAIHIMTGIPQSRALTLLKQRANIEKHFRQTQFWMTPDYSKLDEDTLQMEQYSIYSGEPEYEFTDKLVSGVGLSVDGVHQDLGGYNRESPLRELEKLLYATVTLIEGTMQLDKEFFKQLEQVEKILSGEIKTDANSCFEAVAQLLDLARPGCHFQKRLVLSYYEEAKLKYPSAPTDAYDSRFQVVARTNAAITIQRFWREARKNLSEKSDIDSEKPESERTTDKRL

Question: `Nc1ncnc2c1ncn2[C@@H]1O[C@H](COP(=O)(O)OP(=O)(O)OP(=O)(O)O)[C@@H](O)[C@H]1O` [ATP] was tested. Which Kd did it give?
Answer: 1.45 µM

Reference: paper PMC6855250 (Nature, 2019)
